We go through six compounds from patent publication US10894768B2, “Salt of (R)-(1-methylpyrrolidine-3-yl)methyl(3′-chloro-4′-fluoro-[1,1′-biphenyl]-2-yl)carbamate and crystal form thereof” (Dong-A St Co., Ltd., priority 2016, dated 2021).

Holding throughout (assay type): physicochemical
Data set [1] is described as follows: Stress stability in a solid state (stress test). How it is done:
(§1) 4. Liquid Chromatography (HPLC)
(§2) Detector: Ultraviolet absorptiometer (detection wavelength of 244 nm)
(§3) Column: Waters, XBridge C18, 4.6*150 mm, 5 um
(§4) Column temperature: 40° C.
(§5) Mobile phase buffer: A 0.01M (NH4)HCO3 solution was prepared and adjusted to pH 10.5 by means of ammonia water.
(§6) Mobile phase A: Buffer:Acetonitrile=8:2
(§7) Mobile phase B: Acetonitrile
(§8) Sample solution: 1.0 mg/mL in 50% methanol

Data set [2] can be described thus: Accelerated stability in the solid state (accelerated test, 40° C./RH 75%). The following applies: for Property / Relative purity (%): 40° C./RH 75%; for Change in purity / Physical state: under the accelerated condition. Here is the method: as §1, §2, §3, §4, §5, §6, §7, §8
Data set [3] is described as follows: Accelerated and stress stability of forms I, II and III. The following applies: for Crystal form / Relative purity (%): oxalate; for Stability: under the accelerated and stress conditions. Here is the method: X-ray powder diffraction (XRPD) pattern was obtained by means of a solid-phase detector of BRUKER D8 ADVANCE model using CuKα radiation at 1.54178 Å (40 kV, 40 mA). An analysis was performed through measurement at an angle 2θ in a range of 3° to 50° with a step size of 0.02°.
as §1, §2, §3, §4, §5, §6, §7, §8
The accelerated test (accelerated condition: 40° C./RH 75%) and the stress test (stress condition: 60° C.) were performed on the form I of (R)-(1-methylpyrrolidine-3-yl)methyl(3′-chloro-4′-fluoro-[1,1′-biphenyl]-2-yl)carbamate oxalate prepared in Example 2 above and the form II of (R)-(1-methylpyrrolidine-3-yl)methyl(3′-chloro-4′-fluoro-[1,1′-biphenyl]-2-yl)carbamate oxalate and the form III of (R)-(1-methylpyrrolidine-3-yl)methyl(3′-chloro-4′-fluoro-[1,1′-biphenyl]-2-yl)carbamate oxalate prepared in Examples 3 and 9, wherein analysis results thereof were shown in Table 3.

Turning to `CN1CC[C@@H](COC(=O)Nc2ccccc2-c2ccc(F)c(Cl)c2)C1.O=C(O)C(=O)O` [Oxalate, (R)-(1-methylpyrrolidine-3-yl)methyl(3′-chloro-4′-fluoro-[1,1′-biphenyl]-2-yl)carbamate oxalate], the Property entry in data set [1] (60° C., Week 1) was “Solid”; in data set [1] (60° C., Week 2), “Solid”; in data set [1] (RH 90%, Week 1), “Solid”; in data set [1] (RH 90%, Week 2), “Solid”; in data set [1] (initial) it was “Solid”; in data set [2] (Week 1), “Solid”. The Property entry in data set [2] (Week 2), in data set [2] (Week 3), in data set [2] (Week 4) and in data set [2] (initial) was “Solid” each time. In addition, the Relative purity in data set [1] (60° C., Week 1) is given as 99.3/ %; in data set [1] (60° C., Week 2) it was 99.4/ %; in data set [1] (RH 90%, Week 1), 99.3/ %; in data set [1] (RH 90%, Week 2) it was 99.4/ %; in data set [1] (initial), 99.3/ %. Also, the Change in purity entry in data set [1] (under the stress condition) and in data set [2] was “do not show a change in purity” each time. For the same compound, the Physical state entry in data set [1] (under the stress condition) is recorded as “kept in an unmelted state”. The “Relative purity (%)” value in data set [2] (Week 1), in data set [2] (Week 2), in data set [2] (Week 3), in data set [2] (Week 4) and in data set [2] (initial) was 99.3% each time.
For `CN1CC[C@@H](COC(=O)Nc2ccccc2-c2ccc(F)c(Cl)c2)C1.O=P(O)(O)O` [Phosphate], the Property entry in data set [1] (60° C., Week 1) is reported as “Dissolved”; in data set [1] (60° C., Week 2), “Dissolved”; in data set [1] (RH 90%, Week 1) it was “Dissolved”; in data set [1] (RH 90%, Week 2) it was “Dissolved”; in data set [1] (initial) it was “Solid”; in data set [2] (Week 1), “Dissolved”. The Property result was “Dissolved” in data set [2] (Week 2), “Dissolved” in data set [2] (Week 3), “Dissolved” in data set [2] (Week 4) and “Solid” in data set [2] (initial). Further, the Relative purity in data set [1] (60° C., Week 1) is listed as 98.4/ %; in data set [1] (60° C., Week 2), 98.4/ %; in data set [1] (RH 90%, Week 1), 98.4/ %; in data set [1] (RH 90%, Week 2), 98.4/ %; in data set [1] (initial), 98.4/ %. Also, the Change in purity entry in data set [1] (under the stress condition) and in data set [2] was “do not show a change in purity” in each case. Further, the “Relative purity (%)” value amounted to 98.3% in data set [2] (Week 1); 98.3% in data set [2] (Week 2); 98.4% in data set [2] (Week 3); 98.4% in data set [2] (Week 4); 98.4% in data set [2] (initial). In addition, in data set [2], the Physical state result is “show a melting phenomenon”.
Take `CN1CC[C@@H](COC(=O)Nc2ccccc2-c2ccc(F)c(Cl)c2)C1.O=C(O)C(=O)O` [form I, (R)-(1-methylpyrrolidine-3-yl)methyl(3′-chloro-4′-fluoro-[1,1′-biphenyl]-2-yl)carbamate oxalate]: the Crystal form result in data set [3] (40° C./RH 75% Week 1), in data set [3] (40° C./RH 75% Week 3), in data set [3] (60° C. Week 1), in data set [3] (60° C. Week 3) and in data set [3] (Early) was “form I” each time. Further, the “Relative purity (%)” value in data set [3] (40° C./RH 75% Week 1) amounted to 99.55%; in data set [3] (40° C./RH 75% Week 3), 99.60%; in data set [3] (60° C. Week 1), 99.71%; in data set [3] (60° C. Week 3), 99.61%; in data set [3] (Early), 99.66%. Further, the Stability entry in data set [3] was “stable”.
As for `CN1CC[C@@H](COC(=O)Nc2ccccc2-c2ccc(F)c(Cl)c2)C1.O=C(O)C(=O)O` [form II, (R)-(1-methylpyrrolidine-3-yl)methyl(3′-chloro-4′-fluoro-[1,1′-biphenyl]-2-yl)carbamate oxalate], the Crystal form entry in data set [3] (40° C./RH 75% Week 1), in data set [3] (40° C./RH 75% Week 3), in data set [3] (60° C. Week 1), in data set [3] (60° C. Week 3) and in data set [3] (Early) was “form II” each time. Besides, the “Relative purity (%)” value in data set [3] (40° C./RH 75% Week 1) was 99.83%; in data set [3] (40° C./RH 75% Week 3), 99.81%; in data set [3] (60° C. Week 1) it was 99.85%; in data set [3] (60° C. Week 3), 99.79%; in data set [3] (Early), 99.87%. The Stability result in data set [3] was “stable”.
For `CN1CC[C@@H](COC(=O)Nc2ccccc2-c2ccc(F)c(Cl)c2)C1.O=C(O)C(=O)O` [form III, (R)-(1-methylpyrrolidine-3-yl)methyl(3′-chloro-4′-fluoro-[1,1′-biphenyl]-2-yl)carbamate oxalate], the Crystal form entry in data set [3] (40° C./RH 75% Week 1), in data set [3] (40° C./RH 75% Week 3), in data set [3] (60° C. Week 1), in data set [3] (60° C. Week 3) and in data set [3] (Early) was “form III” in each case. Moreover, the “Relative purity (%)” value in data set [3] (40° C./RH 75% Week 1) was 99.79%; in data set [3] (40° C./RH 75% Week 3), 99.80%; in data set [3] (60° C. Week 1), 99.82%; in data set [3] (60° C. Week 3), 99.79%; in data set [3] (Early), 99.81%. Also, in data set [3], the Stability entry is given as “stable”.
Consider “(R)-(1-methylpyrrolidine-3-yl)methyl(3′-chloro-4′-fluoro-[1,1′-biphenyl]-2-yl)carbamate citrate”, for which the Property result in data set [1] (60° C., Week 1) is listed as “Dissolved”; in data set [1] (60° C., Week 2), “Dissolved”; in data set [1] (RH 90%, Week 1), “Dissolved”; in data set [1] (RH 90%, Week 2), “Dissolved”; in data set [1] (initial) it was “Solid”; in data set [2] (Week 1) it was “Solid”. Also, the Property result in data set [2] (Week 2) is on record as “Solid”; in data set [2] (Week 3), “Dissolved”; in data set [2] (Week 4), “Dissolved”; in data set [2] (initial), “Solid”. Also, the Relative purity is 97.8/ % in data set [1] (60° C., Week 1); 97.9/ % in data set [1] (60° C., Week 2); 97.7/ % in data set [1] (RH 90%, Week 1); 97.7/ % in data set [1] (RH 90%, Week 2); 97.7/ % in data set [1] (initial). Moreover, the Change in purity entry in data set [1] (under the stress condition) and in data set [2] was “do not show a change in purity” each time. Further, the “Relative purity (%)” value in data set [2] (Week 1) turned out to be 97.7%; in data set [2] (Week 2), 97.6%; in data set [2] (Week 3), 97.7%; in data set [2] (Week 4) it was 97.4%; in data set [2] (initial) it was 97.7%. Moreover, the Physical state result in data set [2] is “show a melting phenomenon”.
